Assay results as given in patent US8318762B2, “Pyrazolospiroketone acetyl-CoA carboxylase inhibitors” (Pfizer Inc., priority 2008, dated 2012).

Biological target: T1, recombinant human ACC2 (Homo sapiens, UniProt O00763)
T1 construct: a full length Cytomax clone of ACC2 was purchased from Cambridge Bioscience Limited; made in house; host or cells: CHO cells (tetracycline induction, pcDNA5 FRT TO-TOPO); purified on a Softlink Soft Release Avidin column
Assay: Measurement of human ACC2 inhibition (recombinant hACC2 Transcreener ADP detection FP assay)
Type: biochemical
Conditions: recombinant hACC2 transcreener assay; read-out: rhACC2 IC50
Experimental: [3] Measurement of human ACC2 inhibition. Human ACC2 inhibition was measured using purified recombinant human ACC2 (hrACC2). […] The ACC2 was expressed in CHO cells by tetracycline induction and harvested in 5 liters of DMEM/F12 with glutamine, biotin, hygromycin and blasticidin with 1 μg/mL tetracycline (Invitrogen, Carlsbad, Calif.). The conditioned medium containing ACC2 was then applied to a Softlink Soft Release Avidin column (Promega, Madison, Wis.) and eluted with 5 mM biotin. […] The purified ACC2 was dialyzed in 50 mM Tris, 200 mM NaCl, 4 mM DTT, 2 mM EDTA, and 5% glycerol. […] The final conditions for the assay were 50 mM HEPES, pH7.5, 5 mM MgCl2, 5 mM tripotassium citrate, 2 mM DTT, 0.5 mg/mL BSA, 30 μM acetyl-CoA, 50 μM ATP, and 8 mM KHCO3. Typically, a 10 μl reaction was run for 1 hour at room temperature, and 10 μl of Transcreener stop and detect buffer was added and incubated for an additional 1 hour.

T1 sequence (O00763 whole entry): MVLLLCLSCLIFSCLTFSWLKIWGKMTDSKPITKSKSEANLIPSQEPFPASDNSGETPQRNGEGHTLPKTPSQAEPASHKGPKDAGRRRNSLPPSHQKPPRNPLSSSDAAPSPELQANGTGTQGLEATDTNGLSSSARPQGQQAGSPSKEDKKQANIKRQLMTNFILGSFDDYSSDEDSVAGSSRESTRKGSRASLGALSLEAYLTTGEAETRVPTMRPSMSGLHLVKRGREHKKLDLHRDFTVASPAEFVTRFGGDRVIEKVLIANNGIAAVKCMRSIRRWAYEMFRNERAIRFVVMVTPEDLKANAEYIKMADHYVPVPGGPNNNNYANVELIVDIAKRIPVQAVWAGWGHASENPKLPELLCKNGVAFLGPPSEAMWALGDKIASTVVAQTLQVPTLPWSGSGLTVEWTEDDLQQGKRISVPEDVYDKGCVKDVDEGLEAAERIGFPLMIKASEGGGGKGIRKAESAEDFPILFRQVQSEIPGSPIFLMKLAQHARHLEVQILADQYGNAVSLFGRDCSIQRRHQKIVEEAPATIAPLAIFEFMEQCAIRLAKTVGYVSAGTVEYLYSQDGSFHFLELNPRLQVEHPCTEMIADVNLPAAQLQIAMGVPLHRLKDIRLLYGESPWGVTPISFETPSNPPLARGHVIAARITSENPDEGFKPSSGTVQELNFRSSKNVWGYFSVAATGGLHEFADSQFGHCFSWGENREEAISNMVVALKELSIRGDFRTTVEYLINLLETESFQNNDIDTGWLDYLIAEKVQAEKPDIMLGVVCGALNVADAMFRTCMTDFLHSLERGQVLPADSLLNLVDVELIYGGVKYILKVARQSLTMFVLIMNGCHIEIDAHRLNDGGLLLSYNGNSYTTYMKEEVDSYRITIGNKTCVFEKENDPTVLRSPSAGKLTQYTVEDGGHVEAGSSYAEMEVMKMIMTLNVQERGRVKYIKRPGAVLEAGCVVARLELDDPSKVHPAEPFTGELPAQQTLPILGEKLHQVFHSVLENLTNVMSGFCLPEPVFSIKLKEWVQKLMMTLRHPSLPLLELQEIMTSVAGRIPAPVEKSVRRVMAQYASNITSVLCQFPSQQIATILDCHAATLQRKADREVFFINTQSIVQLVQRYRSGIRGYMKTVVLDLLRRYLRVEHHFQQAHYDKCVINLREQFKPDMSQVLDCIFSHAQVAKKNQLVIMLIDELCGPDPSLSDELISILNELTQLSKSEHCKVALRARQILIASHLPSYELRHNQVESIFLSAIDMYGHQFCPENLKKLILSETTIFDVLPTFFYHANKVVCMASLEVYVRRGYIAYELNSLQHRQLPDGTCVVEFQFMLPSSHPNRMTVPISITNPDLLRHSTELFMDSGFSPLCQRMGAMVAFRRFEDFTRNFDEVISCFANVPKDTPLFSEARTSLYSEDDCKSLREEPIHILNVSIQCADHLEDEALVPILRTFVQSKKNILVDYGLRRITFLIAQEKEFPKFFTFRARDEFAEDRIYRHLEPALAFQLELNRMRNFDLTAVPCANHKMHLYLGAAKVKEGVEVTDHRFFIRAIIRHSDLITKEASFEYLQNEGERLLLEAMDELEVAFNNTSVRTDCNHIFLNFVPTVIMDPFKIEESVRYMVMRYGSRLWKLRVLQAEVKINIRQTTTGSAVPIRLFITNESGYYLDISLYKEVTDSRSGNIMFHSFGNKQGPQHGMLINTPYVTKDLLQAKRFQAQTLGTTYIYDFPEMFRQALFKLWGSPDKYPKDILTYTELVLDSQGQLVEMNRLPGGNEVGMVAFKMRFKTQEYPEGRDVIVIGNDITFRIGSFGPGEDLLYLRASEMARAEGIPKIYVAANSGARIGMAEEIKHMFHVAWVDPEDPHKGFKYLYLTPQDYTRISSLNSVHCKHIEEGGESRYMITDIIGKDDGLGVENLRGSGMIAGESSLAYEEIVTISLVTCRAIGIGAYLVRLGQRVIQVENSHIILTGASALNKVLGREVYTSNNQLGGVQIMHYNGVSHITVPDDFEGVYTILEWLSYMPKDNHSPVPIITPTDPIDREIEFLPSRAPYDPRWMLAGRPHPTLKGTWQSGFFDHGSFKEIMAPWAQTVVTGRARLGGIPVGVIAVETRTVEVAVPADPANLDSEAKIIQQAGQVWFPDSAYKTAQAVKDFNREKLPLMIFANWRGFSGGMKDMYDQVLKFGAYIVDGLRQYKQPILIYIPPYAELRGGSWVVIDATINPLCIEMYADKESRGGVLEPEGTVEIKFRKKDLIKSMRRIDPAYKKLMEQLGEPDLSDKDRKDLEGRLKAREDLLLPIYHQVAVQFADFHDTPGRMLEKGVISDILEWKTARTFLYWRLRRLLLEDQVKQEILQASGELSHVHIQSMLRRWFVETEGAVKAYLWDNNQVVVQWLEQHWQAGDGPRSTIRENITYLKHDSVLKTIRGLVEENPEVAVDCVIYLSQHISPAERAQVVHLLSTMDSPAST

Structure (SMILES)	IC50 [nM]
CCOc1cc(C(=O)N2CCC3(CC2)CC(=O)c2nn(C(C)C)cc2O3)cc2c(C)n[nH]c12 [1.120]	6
Cn1ncc2ccc(C(=O)N3CCC4(CC3)CC(=O)c3nn(C(C)(C)C)cc3O4)cc21 [2.013]	19
CC(C)(C)n1cc2c(n1)C(=O)CC1(CCN(C(=O)c3ccc4snc(N)c4c3)CC1)O2 [7.002]	3
CCn1c(C)nc2cc(C(=O)N3CCC4(CC3)CC(=O)c3nn(C(C)(C)C)cc3O4)ccc21 [8.008]	52
CCOc1cc(C(=O)N2CCC3(CC2)CC(=O)c2nn(C(C)(C)C)cc2O3)cc2c(CC)n[nH]c12 [1.117]	4
CCn1nc2c(c1C)OC1(CCN(C(=O)c3ccc4ccn(C)c4c3)CC1)CC2=O [18.002]	33
CCn1cc2c(n1)C(=O)CC1(CCN(C(=O)c3cc(C)c4[nH]nc(Cl)c4c3)CC1)O2 [1.108]	19
CCOc1cc(C(=O)N2CCC3(CC2)CC(=O)c2nn(C(C)(C)C)cc2O3)cc2c(C)n[nH]c12 [1.116]	5
CCn1nc2c(c1C)OC1(CCN(C(=O)c3ccc4cn[nH]c4c3OC)CC1)CC2=O [2.021]	70
CCc1c2c(nn1C)C(=O)CC1(CCN(C(=O)c3cc(C)c4[nH]ncc4c3)CC1)O2 [1.035]	367
COc1cc(C(=O)N2CCC3(CC2)CC(=O)c2nn(C(C)C)cc2O3)cc2c(C)n[nH]c12 [1.075]	6
CC(C)n1cc2c(n1)C(=O)CC1(CCN(C(=O)c3ccc4ocnc4c3)CC1)O2 [9.001]	300
CCn1nc2c(c1C)OC1(CCN(C(=O)c3ccc4c(C)n[nH]c4c3)CC1)CC2=O [2.025]	44
CCn1nc2c(c1C)OC1(CCN(C(=O)c3cc(Cl)c4[nH]nc(C)c4c3)CC1)CC2=O [1.111]	12
CC(C)(C)n1cc2c(n1)C(=O)CC1(CCN(C(=O)c3ccc4c(c3)OCC(=O)N4)CC1)O2 [13.003]	49
CCOc1cc(C(=O)N2CCC3(CC2)CC(=O)c2nn(C(C)C)c(C)c2O3)cc2cn[nH]c12 [1.122]	5
CC(C)n1cc2c(n1)C(=O)CC1(CCN(C(=O)c3ccc4sncc4c3)CC1)O2 [7.006]	92
COc1cc(C(=O)N2CCC3(CC2)CC(=O)c2nn(C(C)C)c(C)c2O3)cc2cn[nH]c12 [1.055]	10
CCn1nc2c(c1C)OC1(CCN(C(=O)c3cc(C)c4c(c3)ncn4C)CC1)CC2=O [8.003]	87
Cc1n[nH]c2c(C)cc(C(=O)N3CCC4(CC3)CC(=O)c3nn(C5CC5)c(C)c3O4)cc12 [1.014]	9
CCc1n[nH]c2c(OC)cc(C(=O)N3CCC4(CC3)CC(=O)c3nn(C5CCCCC5)cc3O4)cc12 [1.048]	18
CCn1cc2c(n1)C(=O)CC1(CCN(C(=O)c3cc(Cl)c4[nH]ncc4c3)CC1)O2 [1.062]	43
CCOc1cc(C(=O)N2CCC3(CC2)CC(=O)c2nn(C(C)C)cc2O3)cc2c(CC)n[nH]c12 [1.121]	6
CC(C)(C)n1cc2c(n1)C(=O)CC1(CCN(C(=O)c3cc(Cl)c4[nH]ncc4c3)CC1)O2 [1.065]	8
CC(C)n1cc2c(n1)C(=O)CC1(CCN(C(=O)c3cc(Cl)c4cn[nH]c4c3)CC1)O2 [2.006]	13

Structure (SMILES)	IC50 [nM]
COc1c(C(=O)N2CCC3(CC2)CC(=O)c2nn(C(C)C)cc2O3)ccc2cn[nH]c12 [2.022]	47
CCOc1cc(C(=O)N2CCC3(CC2)CC(=O)c2nn(CC)c(C)c2O3)cc2c(C)n[nH]c12 [1.118]	27
Cc1n[nH]c2c(C)cc(C(=O)N3CCC4(CC3)CC(=O)c3nn(C(C)(C)C)c(C)c3O4)cc12 [1.011]	15
COc1c(C(=O)N2CCC3(CC2)CC(=O)c2nn(C(C)(C)C)cc2O3)ccc2cn[nH]c12 [2.020]	27
Cc1cc(C(=O)N2CCC3(CC2)CC(=O)c2nn(C4CC4)cc2O3)cc2cn[nH]c12 [1.144]	19
Cc1n[nH]c2c(Cl)cc(C(=O)N3CCC4(CC3)CC(=O)c3nn(C(C)(C)C)cc3O4)cc12 [1.110]	3
Cc1cc(C(=O)N2CCC3(CC2)CC(=O)c2nn(C(C)(C)C)cc2O3)cc2ccc(=O)[nH]c12 [11.002]	11
CCn1nc2c(c1C)OC1(CCN(C(=O)c3ccc4nc(C)[nH]c4c3)CC1)CC2=O [3.013]	211
Cc1cc(C(=O)N2CCC3(CC2)CC(=O)c2nn(C(C)C)c(C)c2O3)cc2cn[nH]c12 [1.040]	15
CCc1n[nH]c2c(OC)cc(C(=O)N3CCC4(CC3)CC(=O)c3nn(CC)c(C)c3O4)cc12 [1.045]	22
Cc1cc(C(=O)N2CCC3(CC2)CC(=O)c2nn(C(C)C)cc2O3)cc2ncn(C)c12 [8.002]	59
CCn1nc2c(c1C)OC1(CCN(C(=O)c3ccc4nc[nH]c4c3)CC1)CC2=O [3.026]	168
Cc1cc(C(=O)N2CCC3(CC2)CC(=O)c2nn(C(C)(C)C)cc2O3)cc2c1ncn2C [3.023]	15
Cc1cc(C(=O)N2CCC3(CC2)CC(=O)c2nn(C4CCC4)cc2O3)cc2c(Cl)n[nH]c12 [1.106]	8
CCn1nc2c(c1C)OC1(CCN(C(=O)c3ccc4snc(N)c4c3)CC1)CC2=O [7.003]	19
CCn1cc2c(n1)C(=O)CC1(CCN(C(=O)c3ccc4[nH]ncc4c3)CC1)O2 [1.069]	197
CCn1cc2c(n1)C(=O)CC1(CCN(C(=O)c3cc(C)c4[nH]ncc4c3)CC1)O2 [1.025]	54
Cc1n[nH]c2c(C)cc(C(=O)N3CCC4(CC3)CC(=O)c3nn(C)c(C)c3O4)cc12 [1.005]	117
CC(C)n1cc2c(n1)C(=O)CC1(CCN(C(=O)c3ccc4cnoc4c3)CC1)O2 [23.004]	> 1000
Cc1n[nH]c2c(C)cc(C(=O)N3CCC4(CC3)CC(=O)c3nn(C5CCC5)cc3O4)cc12 [1.010]	4
Cc1c2c(nn1C)C(=O)CC1(CCN(C(=O)c3ccc4[nH]ncc4c3)CC1)O2 [1.070]	713
CC(C)n1cc2c(n1)C(=O)CC1(CCN(C(=O)c3cc(Cl)c4[nH]ncc4c3)CC1)O2 [1.066]	26
Cc1ccc2cc(C(=O)N3CCC4(CC3)CC(=O)c3nn(C(C)(C)C)cc3O4)ccc2n1 [15.001]	26
CCc1n[nH]c2c(C)cc(C(=O)N3CCC4(CC3)CC(=O)c3nn(C(C)C)cc3O4)cc12 [1.017]	3
COc1cc(C(=O)N2CCC3(CC2)CC(=O)c2nn(C4CCC4)c(C)c2O3)cc2cn[nH]c12 [1.127]	20

Structure (SMILES)	IC50 [nM]
CC(C)n1cc2c(n1)C(=O)CC1(CCN(C(=O)c3ccc4cnsc4c3)CC1)O2 [24.002]	198
Cc1cc(C(=O)N2CCC3(CC2)CC(=O)c2nn(C(C)C)cc2O3)cc2c1ncn2C [3.009]	22
COc1cc(C(=O)N2CCC3(CC2)CC(=O)c2nn(CC(C)C)c(C)c2O3)cc2c(C)n[nH]c12 [1.132]	13
CC(C)(C)n1cc2c(n1)C(=O)CC1(CCN(C(=O)c3ccc4cn[nH]c4c3F)CC1)O2 [2.017]	52
CCn1nc2c(c1C)OC1(CCN(C(=O)c3ccc4[nH]ncc4c3)CC1)CC2=O [1.068]	84
Cc1n[nH]c2ccc(C(=O)N3CCC4(CC3)CC(=O)c3nn(C5CCCC5)cc3O4)cc12 [1.088]	16
CC(C)(C)n1cc2c(n1)C(=O)CC1(CCN(C(=O)c3ccc4cccnc4c3)CC1)O2 [16.001]	12
Cc1n[nH]c2ccc(C(=O)N3CCC4(CC3)CC(=O)c3nn(C)cc3O4)cc12 [1.085]	403
CCC(C)n1cc2c(n1)C(=O)CC1(CCN(C(=O)c3cc(C)c4[nH]nc(C)c4c3)CC1)O2 (stereo not drawn) [1.140]	2
COc1cc(C(=O)N2CCC3(CC2)CC(=O)c2nn(CC(C)C)c(C)c2O3)cc2cn[nH]c12 [1.131]	19
Cn1cnc2cc(C(=O)N3CCC4(CC3)CC(=O)c3nn(C(C)(C)C)cc3O4)ccc21 [8.007]	58
CCc1cc(C(=O)N2CCC3(CC2)CC(=O)c2nn(CC)cc2O3)cc2c(C)n[nH]c12 [1.100]	36
CCn1nc2c(c1C)OC1(CCN(C(=O)c3cc(C)c4[nH]c(=O)ccc4c3)CC1)CC2=O [11.001]	33
CC(C)n1cc2c(n1)C(=O)CC1(CCN(C(=O)c3cc(F)c4nc[nH]c4c3)CC1)O2 [3.021]	39
Cc1cc(C(=O)N2CCC3(CC2)CC(=O)c2nn(C(C)C)cc2O3)cc2cnsc12 [7.009]	18
CCn1nc2c(c1C)OC1(CCN(C(=O)c3ccc4cn[nH]c4c3)CC1)CC2=O [2.011]	82
CC(C)n1cc2c(n1)C(=O)CC1(CCN(C(=O)c3cc(F)c4cn[nH]c4c3)CC1)O2 [2.015]	136
CCn1nc2c(c1C)OC1(CCN(C(=O)c3cc(Cl)c4[nH]ncc4c3)CC1)CC2=O [1.061]	54
CCn1nc2c(c1C)OC1(CCN(C(=O)c3ccc4cccnc4c3)CC1)CC2=O [16.002]	250
CC(C)(C)n1cc2c(n1)C(=O)CC1(CCN(C(=O)c3ccc4occc4c3)CC1)O2 [17.001]	33
CCc1nn(C)c2c(OC)cc(C(=O)N3CCC4(CC3)CC(=O)c3nn(CC)cc3O4)cc12 [1.099]	20
CCn1nc2c(c1C)OC1(CCN(C(=O)c3ccc4c(c3)nc(C)n4CC)CC1)CC2=O [8.004]	481
Cc1noc2cc(C(=O)N3CCC4(CC3)CC(=O)c3nn(C(C)(C)C)cc3O4)ccc12 [23.002]	55
CCOc1cc(C(=O)N2CCC3(CC2)CC(=O)c2nn(CC)c(C)c2O3)cc2c(CC)n[nH]c12 [1.018]	34
CCc1nn(C)c2cc(C(=O)N3CCC4(CC3)CC(=O)c3nn(CC)cc3O4)ccc12 [2.008]	81
